{"source": "paper PMC9507378", "about": "(Advanced Science, 2022)", "key": {"OP9 cells [1]": {"test_system": "OP9 cells", "assay": "CCK-8 cell viability assay", "assay_type": "cell-based", "settings": "48 h, CCK-8, n = 6, tested 6.25 to 100 µg mL^−1, read-out: concentration showing the median inhibitory effect on OP9 cells", "experimental": "macropinocytosis, actin microfilament, and microtubule. The OP9 cells were pretreated with five inhibitors separately in 2% FBS culture media for 1 h, then the culture media was replaced with new culture media simultaneously containing OGP-tFNAs-Cy5 and different inhibitors for another 6 h. After that, the samples were collected for flow cytometric analysis and confocal microscopy observation for fluorescence intensity detection.\nCell viability assay: Cell Counting Kit-8 (CCK-8) assay was applied to detect the cell viability after treatment with tFNAs, OGP and OGP-tFNAs with different […]\nCell cycle, senescence and apoptosis detection: Cell cycle and apoptosis were detected via flow cytometric analysis. […]\ntreatment (25 μg/mL). The cell cycle was detected using cell cycle detection Kit (KeyGEN, Jiangsu, China). […] After that, the samples were rinsed with PBS and incubated with RNase for 30 min in 37℃ water-bath, then incubated with Propidium Iodide (PI) for 30min and detected via flow cytometry. The cell apoptosis was detected using Annexin V-FITC/PI apoptosis detection kit (KeyGEN, Jiangsu, China).\nAfter the cells were collected and resuspended with 500 μL binding buffer, 5 μL Annexin V-FITC and 5 μL PI were added into the binding buffer. After 5-15 min incubation, the samples were detected via flow cytometry. […]"}, "OP9 cells [2]": {"test_system": "OP9 cells", "assay": "Apoptosis by flow cytometry (Annexin V-FITC/PI)", "assay_type": "cell-based", "settings": "5-FU group, 25 µg mL^−1, 24 h", "quoted_text": "Cell cycle, senescence and apoptosis detection: Cell cycle and apoptosis were detected via flow cytometric analysis. OP9 cells were cultured in 6-well plates and\ntreatment (25 μg/mL). […] The cell apoptosis was detected using Annexin V-FITC/PI apoptosis detection kit (KeyGEN, Jiangsu, China)."}, "[3]": {"test_system": "SCF production in OP9 cells", "assay": "SCF expression (immunofluorescence, Western blot)", "assay_type": "cell-based", "settings": "25 µg mL^−1 5-FU, 24 h; n = 3", "experimental": "staining buffer (2% FBS in PBS), then immunofluorescent staining was performed for later flow cytometry (PE anti-γ-H2AX, Biolegend, 1:20).\nWestern blotting: The total protein was extracted using Total Protein Extraction Kit (KeyGEN, Jiangsu, China) according to the standard protocol. After protein extraction and boiling denaturation, the proteins were separated using 10-15% SDS-PAGE and transferred to PVDF membranes. Then the samples were blocked with blocking buffer (QuickBlock™ Blocking Buffer, Beyotime Biotechnology, Shanghai, China) for 15min, and then incubated with related primary antibodies (anti-GAPDH, CST, 1:1000; anti-Bcl-2, CST, […]; anti-Bax, CST; anti-Caspase-3, […]\n1:500; anti-γ-H2AX, abcam, 1:5000) overnight at 4 ℃. At the second day, the samples were incubated with related secondary antibodies for 1h and detected using Gel & Blot Imaging system (ChemiDoc MP, Bio-Rad, USA). […]\nanother 24-h 5-FU treatment. […] Finally, the samples were detected using fluorescence confocal microscope (FV3000, Olympus, Japan).\nPlasma pharmacokinetics: Plasma pharmacokinetics experiment was performed to investigate the in vivo metabolism of tFNAs and OGP-tFNAs. tFNAs-Cy5 and OGP-tFNAs-Cy5 were administrated via tail vein injection. […] Finally, the blood samples were detected using the channel of Cy5 fluorescence of Gel & Blot Imaging system (ChemiDoc MP, Bio-Rad, USA). […]"}, "OP9 cells [4]": {"test_system": "OP9 cells", "assay": "Cellular internalization mechanism of OGP-tFNAs with endocytosis inhibitors", "assay_type": "cell-based", "settings": "1 h inhibitor pretreatment in 2% FBS medium then 6 h with OGP-tFNAs-Cy5, 20 μM for Dynasore and Cytochalasin D, flow cytometry, n = 3", "quoted_text": "Cell culture and treatment: Bone marrow stromal OP9 cells were purchased from\nNational Collection of Authenticated Cell Cultures (Shanghai, China). The cells were\ncultured in α-MEM with 1% penicillin-streptomycin and 20% FBS at 37 ° C in 5%\nCO2. When the cell intensity approached 80%-90%, OP9 cells were recultivated in\ninternalization of tFNAs, and the influence of tFNAs as drug carriers on the cellular\nlabeled with FITC fluorescence. After the cells were treated with tFNAs-Cy5 and\nharvested for flow cytometric analysis (Attune® NxT, Invitrogen, USA) and confocal\nfluorescence microscopy observation (FV3000, Olympus, Japan).\n(Methyl-β-cyclodextrin, MedChemExpress, USA; Dynasore, MedChemExpress, USA;\nNocodazole, MedChemExpress, USA; Amiloride hydrochloride, Abcam, USA;\nCytochalasin D, Abcam, USA) were used to inhibit the clathrin, caveolae,"}, "ICR mice": {"test_system": "ICR mice", "settings": "mouse, in vivo, ip, 150 mg/kg", "quoted_text": "6–8 weeks male ICR mice (Dossy Experimental Animals Co, Ltd., Chengdu, China) were raised in specific pathogen‐free (SPF) environment with stable temperature and 12 h light/dark cycle.\nMyelosuppression induction and systematic drug delivery: The mice were divided\ninto five groups: 1) Control group; 2) Saline + myelosuppression group; 3) tFNAs +\nmyelosuppression group. For myelosuppression groups, the mice were continuously\nintraperitoneal injection (i.p.) for 3 days (days 4-6) for myelosuppression induction.\nFor normal group, the same volume of saline was delivered via tail intravenous\ninjection at days 1-9 and PBS via intraperitoneal injection at days 4-6. At day 10, all\nthe mice were sacrificed for later detections.\nHistological detections: As main hematopoietic organs, femurs and sternums were\ncollected and fixed in 4% paraformaldehyde. After decalcification for 3-4 weeks in\nEDTA decalcifying solution (Servicebio, Wuhan, China), the samples were\ndehydrated and embedded in paraffin. Then, the samples were coronally sectioned\nalong the long axis of the femurs and sternums, then Hematoxylin-Eosin (H&E)\nstaining was performed to observe the histological changes. Meanwhile, as major"}}, "data": [{"smiles": "O=c1[nH]cc(F)c(=O)[nH]1", "note": "[5-FU, 5‐fluorouracil]", "values": [{"measurement": "IC50", "setting": "OP9 cells [1]", "result": 25, "unit": "µg/mL"}, {"measurement": "number of dead OP9 cells", "setting": "OP9 cells [2]", "result": "≈ 30%"}, {"measurement": "reduction of SCF production in OP9 cells", "setting": "[3]", "result": "≈ 50%"}]}, {"smiles": "C=C1[C@@H](C)[C@H]2[C@H](Cc3ccccc3)NC(=O)[C@]23[C@H](OC(C)=O)/C=C/[C@@](C)(O)C(=O)[C@@H](C)C/C=C/[C@H]3[C@@H]1O", "note": "[Cytochalasin D]", "values": [{"measurement": "inhibition of internalization of OGP-tFNAs", "setting": "OP9 cells [4]", "result": "more significant inhibition ratios"}]}, {"smiles": "O=C(N/N=C/c1ccc(O)c(O)c1)c1cc2ccccc2cc1O", "note": "[Dynasore]", "values": [{"measurement": "inhibition of internalization of OGP-tFNAs", "setting": "OP9 cells [4]", "result": "more significant inhibition ratios"}]}, {"smiles": "O=P1(N(CCCl)CCCl)NCCCO1", "note": "(stereo not drawn) [cyclophosphamide]", "values": [{"measurement": "share of the bone marrow cavity filled by bone marrow cells", "setting": "ICR mice", "result": "20–30%"}]}]}
